Experimental data taken from PMC5706040, “Reclamation of Marine Chitinous Materials for the Production of α-Glucosidase Inhibitors via Microbial Conversion” (Marine Drugs, 2017).

Tests used:
Assay in all cases: absorbance at […] nm, p-nitrophenol release
[1] = target: T1, B. stearothermophilus α-glucosidase; assay type: biochemical, Geobacillus stearothermophilus; details: pNPG substrate, 0.1 mol/L potassium phosphate pH 7, 37 °C, 20 min preincubation, enzyme 0.10 U/mL
T1 construct: gene exo-alpha-1; commercial enzyme (Sigma Aldrich, Singapore)

[2] = target: T2, S. cerevisiae α-glucosidase; assay type: biochemical, Saccharomyces cerevisiae; details: pNPG substrate, 0.1 mol/L potassium phosphate pH 7, 37 °C, 20 min preincubation, enzyme 0.25 U/mL
T2 construct: gene MAL12; commercial yeast enzyme (Sigma Aldrich, Singapore)

[3] = target: T3, Rat intestinal α-glucosidase; assay type: biochemical; details: pNPG substrate, 0.1 mol/L potassium phosphate pH 7, 37 °C, 20 min preincubation, intestinal acetone powder preparation
T3 construct: gene Si; preparation from rat intestinal acetone powder (Sigma Aldrich)

[4] = target: T4, Rice α-glucosidase; assay type: biochemical, Oryza sativa; details: pNPG substrate, 0.1 mol/L potassium phosphate pH 7, 37 °C, 20 min preincubation, enzyme 1.0 U/mL
T4 construct: gene Os06g0675700; commercial enzyme from rice, type 4 (Sigma Aldrich)

Inhibition by Acarbose / IC50 [1]: 0.042 ± 0.003 µg/mL
α-Glucosidase Inhibition / IC50 [2]: 1095 ± 93 µg/mL
Inhibition by Acarbose / IC50 [3]: 78 ± 3.2 µg/mL
Inhibition by Acarbose / IC50 [4]: 3.04 ± 0.82 µg/mL
SMILES: C[C@H]1O[C@H](O[C@H]2[C@H](O)[C@@H](O)[C@@H](O[C@H]3[C@H](O)[C@@H](O)C(O)O[C@@H]3CO)O[C@@H]2CO)[C@H](O)[C@@H](O)[C@@H]1N[C@H]1C=C(CO)[C@@H](O)[C@H](O)[C@H]1O (stereo partly shown) [acarbose]
